Results on 35 compounds are retold here after patent US20090221559A1 (priority 2005, published 2009).

Molecules are shown by their SMILES. Where two headings read alike, the source gives them in different places.

Assay [1] deals with T1, HCV NS5B polymerase (His-tagged, C-terminal 21 amino acid deleted NS5B, HC-J4) (Hepatitis C virus genotype 1b, UniProt O92972).
T1 construct: The cDNA encoding NS5B amino acid 1-570 (HC-J4, genotype 1b); His tag (His6, from pET-21b) (C); made in house; host or cells: E. coli BL21 (DE3)
T1 sequence (O92972 2417-3000, looked up, stated change not applied): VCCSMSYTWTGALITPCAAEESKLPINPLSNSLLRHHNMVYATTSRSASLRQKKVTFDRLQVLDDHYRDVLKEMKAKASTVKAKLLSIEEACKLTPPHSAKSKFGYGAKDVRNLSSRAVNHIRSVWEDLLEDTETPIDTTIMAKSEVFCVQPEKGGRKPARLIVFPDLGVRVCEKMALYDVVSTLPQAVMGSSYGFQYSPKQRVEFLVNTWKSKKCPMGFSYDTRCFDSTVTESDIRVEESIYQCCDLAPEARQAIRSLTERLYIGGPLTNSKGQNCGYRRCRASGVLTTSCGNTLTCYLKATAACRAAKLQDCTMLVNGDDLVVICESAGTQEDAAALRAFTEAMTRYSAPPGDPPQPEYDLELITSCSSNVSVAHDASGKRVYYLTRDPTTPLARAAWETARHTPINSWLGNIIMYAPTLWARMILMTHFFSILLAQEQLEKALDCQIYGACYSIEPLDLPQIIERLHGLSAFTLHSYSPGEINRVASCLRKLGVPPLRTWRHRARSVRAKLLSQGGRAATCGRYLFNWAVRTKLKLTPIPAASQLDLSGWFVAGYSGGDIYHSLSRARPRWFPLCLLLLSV
Put plainly: NS5b polymerase assay (biochemical RdRp assay, 3H-GTP incorporation, SPA beads). More on the design: species or system HCV genotype 1b. As to conditions: 3H-GTP incorporation, 2 h at 25° C. In a few lines: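 His-tagged C-terminal-21-aa-deleted NS5B (genotype 1b, HC-J4) at 200 nM was preincubated 15 min at RT with compound on 5′-biotinylated oligo(rG13)/poly(rC) template/primer before NTPs. Reaction with 600 nM GTP plus 0.1 μCi 3H-GTP and 5 mM MgCl2 in Tris pH 7.5 ran 2 h at 25 °C. Stopped with EDTA/SPA beads for incorporation counting.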

Assay [2] concerns HCV replicon RNA replication in Huh-7 luc/neo (Huh-Luc) cells. The assay can be described thus: HCV replicon assay (stable replicon cell reporter assay, luciferase read-out). In kind it is cell-based, HCV type 1b. In a few lines: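 Huh-7 cells stably carry a bicistronic HCV 1b NS3-NS5B subgenomic replicon with firefly luciferase and neo markers. Cells were plated with compound across a concentration range and incubated three days. Replication was measured as luciferase activity to give dose-response curves.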

[3] abbreviates: NS5B Polymerase Assay IC50, 200 nM enzyme.
Setting [4] is: Hepatitis C virus, Huh-7, 72 h, read-out: Replicon Assay EC50, Huh-Luc cells, three days incubation, luciferase activity.
The mark [5] stands for this setting: 200 nM enzyme, read-out: NS5B Polymerase Assay IC50.
The mark [6] stands for this setting: Huh-Luc cells, three days incubation, luciferase activity, read-out: Replicon Assay EC50.

For `CCCOc1ccc(C2C3=C(CC(C)(C)CC3=O)Nc3ccccc3N2C(C)=O)cc1OC` (stereo not shown) [compound 129], the concentration for half-maximal inhibition (IC50) in assay [1] (setting [3]) is > 42.7 µM. Besides, the EC50 in assay [2] (setting [4]) is > 32 µM.
Regarding `CCCOc1ccccc1C1C2=C(CC(C)(C)CC2=O)Nc2ccccc2N1C(C)=O` (stereo not shown) [compound 130], in assay [1] (setting [3]), the concentration for half-maximal inhibition (IC50) was > 42.7 µM. Also, the concentration giving a half-maximal response (EC50) in assay [2] (setting [4]) is > 32 µM.
With `CCN(CC)c1ccc(C2C3=C(CC(C)(C)CC3=O)Nc3ccccc3N2C(C)=O)cc1` (stereo not shown) [compound 131], in assay [1] (setting [3]), the 50% inhibitory concentration (IC50) was > 42.7 µM. Moreover, the EC50 in assay [2] (setting [4]) is > 32 µM.
On to `COc1ccc(C2C3=C(CC(C)(C)CC3=O)Nc3ccccc3N2C(C)=O)c(OC)c1` (stereo not shown) [compound 132], for which the IC50 in assay [1] (setting [3]) is > 42.7 µM. Also, the EC50 in assay [2] (setting [4]) is 12.8 µM.
Take `CC(=O)N1c2ccccc2NC2=C(C(=O)CC(C)(C)C2)C1c1cc(Cl)cc(Cl)c1` (stereo not shown) [compound 133, 10-acetyl-11-[3,5-dichlorophenyl]-3,3-dimethyl-2,3,4,5,10,11-hexahydro-1H-dibenzo[b,e][1,4]diazepin-1-one]: the 50% inhibitory concentration (IC50) in assay [1] (setting [3]) was > 133 µM. Also, the EC50 in assay [2] (setting [4]) stood at 11 µM.
For `CC(=O)N1c2ccccc2NC2=C(C(=O)CC(C)(C)C2)C1c1ccc(Oc2ccccc2)cc1` (stereo not shown) [compound 134, 10-acetyl-11-(4-phenoxyphenyl)-3,3-dimethyl-2,3,4,5,10,11-hexahydro-1H-dibenzo[b,e][1,4]diazepin-1-one], in that order: 47.3 µM and 4.64 µM.
Regarding `CC(=O)N1c2ccccc2NC2=C(C(=O)CC(C)(C)C2)C1c1cccc(Oc2ccccc2)c1` (stereo not shown) [compound 135], in assay [1] (setting [3]), the IC50 was 54.7 µM. The half-maximal effective concentration (EC50) in assay [2] (setting [4]) came out at 2.47 µM.
For `CC(=O)N1c2ccccc2NC2=C(C(=O)CC(C)(C)C2)C1c1cccc(OCc2ccccc2)c1` (stereo not shown) [compound 136, 10-acetyl-11-(3-benzyloxyphenyl)-3,3-dimethyl-2,3,4,5,10,11-hexahydro-1H-dibenzo[b,e][1,4]diazepin-1-one], in that order: > 133 µM and 9.51 µM.
For `CC(=O)N1c2ccccc2NC2=C(C(=O)CC(C)(C)C2)C1c1ccc(O)cc1` (stereo not shown) [compound 137, 10-acetyl-11-(4-hydroxyphenyl)-3,3-dimethyl-2,3,4,5,10,11-hexahydro-1H-dibenzo[b,e][1,4]diazepin-1-one], in that order: > 133 µM and > 100 µM.
As for `CC(=O)N1c2ccccc2NC2=C(C(=O)CC(C)(C)C2)C1c1cc(Cl)ccc1Cl` (stereo not shown) [compound 138, 10-acetyl-11-[2,5-dichlorophenyl]-3,3-dimethyl-2,3,4,5,10,11-hexahydro-1H-dibenzo[b,e][1,4]diazepin-1-one], the IC50 in assay [1] (setting [3]) is > 133 µM. In addition, the EC50 in assay [2] (setting [4]) came to 26.7 µM.
On to `CC(=O)N1c2ccccc2NC2=C(C(=O)CC(C)(C)C2)C1c1ccc(OCc2cccnc2)cc1` (stereo not shown) [compound 140, 10-acetyl-3,3-dimethyl-11-[4-(3-pyridylmethoxy)phenyl]-2,3,4,5,10,11-hexahydro-1H-dibenzo[b,e][1,4]diazepin-1-one], for which, in assay [1] (setting [3]), the IC50 was 19.1 µM. Besides, in assay [2] (setting [4]), the EC50 is 7.23 µM.
The matching figures for `CC(=O)N1c2ccccc2NC2=C(C(=O)CC(C)(C)C2)C1c1ccc(OCc2ccccn2)cc1` (stereo not shown) [compound 141, 10-acetyl-3,3-dimethyl-11-[4-(2-pyridylmethoxy)phenyl]-2,3,4,5,10,11-hexahydro-1H-dibenzo[b,e][1,4]diazepin-1-one]: 7.91 µM and 16.3 µM.
For `CC(=O)N1c2ccccc2NC2=C(C(=O)CC(C)(C)C2)C1c1cc(Cl)c(OCc2ccccc2)c(Cl)c1` (stereo not shown) [compound 143, 10-acetyl-11-[4-benzyloxy-3,5-dichlorophenyl]-3,3-dimethyl-2,3,4,5,10,11-hexahydro-1H-dibenzo[b,e][1,4]diazepin-1-one], in that order: 16 µM and 6.3 µM.
The matching figures for `CC(=O)N1c2ccccc2NC2=C(C(=O)CC(C)(C)C2)C1c1ccc(OCc2ccccc2)cc1OCc1ccccc1` (stereo not shown) [compound 144, 10-acetyl-11-[2,4-dibenzyloxyphenyl]-3,3-dimethyl-2,3,4,5,10,11-hexahydro-1H-dibenzo[b,e][1,4]diazepin-1-one]: 23 µM and 3.1 µM.
`CC(=O)N1c2ccccc2NC2=C(C(=O)CC(C)(C)C2)C1c1ccc(OCc2ccncc2)cc1` (stereo not shown) [compound 145, 10-acetyl-3,3-dimethyl-11-[4-(4-pyridylmethoxy)phenyl]-2,3,4,5,10,11-hexahydro-1H-dibenzo[b,e][1,4]diazepin-1-one] showed an IC50 in assay [1] (setting [3]) of 23.1 µM. Also, the EC50 in assay [2] (setting [4]) stood at 5.92 µM.
For `CC(=O)N1c2ccccc2NC2=C(C(=O)CC(C)(C)C2)C1c1ccc(F)cc1F` (stereo not shown) [compound 146, 10-acetyl-11-(2,4-difluorophenyl)-3,3-dimethyl-2,3,4,5,10,11-hexahydro-1H-dibenzo[b,e][1,4]diazepin-1-one], in that order: 2.02 µM and 23.9 µM.
In assay [1] (setting [3]), `CC(=O)N1c2ccccc2NC2=C(C(=O)CC(C)(C)C2)C1c1ccc(Oc2ccccc2Br)cc1` (stereo not shown) [compound 147, 10-acetyl-11-[4-(2-bromophenoxy)phenyl]-3,3-dimethyl-2,3,4,5,10,11-hexahydro-1H-dibenzo[b,e][1,4]diazepin-1-one] displayed an IC50 of 1.97 µM. In addition, in assay [2] (setting [4]), the EC50 is 4.22 µM.
Take `CC(=O)N1c2ccccc2NC2=C(C(=O)CC(C)(C)C2)C1c1ccc(OCc2ccccc2Cl)cc1` (stereo not shown) [compound 148, 10-acetyl-11-[4-(2-chlorobenzyloxy)phenyl]-3,3-dimethyl-2,3,4,5,10,11-hexahydro-1H-dibenzo[b,e][1,4]diazepin-1-one]: the IC50 in assay [1] (setting [3]) is 83.7 µM. For the same compound, the EC50 in assay [2] (setting [4]) amounted to 3.23 µM.
The matching figures for `CC(=O)N1c2ccccc2NC2=C(C(=O)CC(C)(C)C2)C1c1cccc(Oc2ccccc2Br)c1` (stereo not shown) [compound 149, 10-acetyl-11-[3-(2-bromophenoxy)phenyl]-3,3-dimethyl-2,3,4,5,10,11-hexahydro-1H-dibenzo[b,e][1,4]diazepin-1-one]: 30.4 µM and 1.78 µM.
On to `CC(=O)N1c2ccccc2NC2=C(C(=O)CC(C)(C)C2)C1c1c(Cl)cc(OCc2ccccc2)cc1Cl` (stereo not shown) [compound 150, 10-acetyl-11-(4-benzyloxy-2,6-dichlorophenyl)-3,3-dimethyl-2,3,4,5,10,11-hexahydro-1H-dibenzo[b,e][1,4]diazepin-1-one], for which, in assay [1] (setting [3]), the IC50 is > 133 µM. For the same compound, the EC50 in assay [2] (setting [4]) came to 1.69 µM.
`Cc1ccc(C2C3=C(CC(c4ccc(Cl)cc4)CC3=O)Nc3ccccc3N2C(=O)C(F)(F)F)cc1` (stereo not shown) [compound 160]: in assay [1] (setting [5]), the IC50 is > 33.3 µM. The EC50 in assay [2] (setting [6]) is > 25 µM.
Consider `Cc1ccc(C2CC(=O)C3=C(C2)Nc2ccccc2N(C(=O)CCC(=O)O)C3c2ccc(C)cc2)cc1` (stereo not shown) [compound 161], for which the IC50 in assay [1] (setting [3]) was 29.9 µM. Moreover, the half-maximal effective concentration (EC50) in assay [2] (setting [4]) was > 25 µM.
For `CCCOc1ccccc1C1CC(=O)C2=C(C1)Nc1ccccc1N(C(=O)C(F)(F)F)C2c1ccc(OC)cc1` (stereo not shown) [compound 163], the IC50 in assay [1] (setting [5]) is > 42.7 µM. The EC50 in assay [2] (setting [6]) came to 1.76 µM.
Regarding `CCCCCC(=O)N1c2ccccc2NC2=C(C(=O)CC(c3ccc(Cl)cc3)C2)C1c1ccc(Cl)cc1` (stereo not shown) [compound 164], in assay [1] (setting [3]), the IC50 is > 33.3 µM. For the same compound, in assay [2] (setting [4]), the EC50 amounted to 18.5 µM.
Turning to `COc1ccc(C2CC(=O)C3=C(C2)Nc2ccccc2N(C(C)=O)C3c2ccc(Cl)cc2)cc1` (stereo not shown) [compound 165], the IC50 in assay [1] (setting [5]) is > 33.3 µM. For the same compound, in assay [2] (setting [6]), the concentration giving a half-maximal response (EC50) came to 18.6 µM.
As to `Cc1ccc(C2C3=C(CC(c4ccccc4F)CC3=O)Nc3ccccc3N2C(=O)c2ccccc2)cc1` (stereo not shown) [compound 166], the IC50 in assay [1] (setting [5]) is > 42.7 µM. The EC50 in assay [2] (setting [6]) turned out to be 3.98 µM.
As to `CCCCOc1ccc(C2CC(=O)C3=C(C2)Nc2ccccc2N(C(=O)c2ccccc2)C3c2ccccc2)cc1` (stereo not shown) [compound 167], the half-maximal inhibitory concentration (IC50) in assay [1] (setting [5]) was > 42.7 µM. In assay [2] (setting [6]), the half-maximal effective concentration (EC50) is 3.25 µM.
For `CCCCCC(=O)N1c2ccccc2NC2=C(C(=O)CC(c3cccc([N+](=O)[O-])c3)C2)C1c1ccc(OC)cc1` (stereo not shown) [compound 168], in that order: > 42.7 µM and 3.61 µM.
Consider `Cc1ccc(C2CC(=O)C3=C(C2)Nc2ccccc2N(C(=O)C(F)(F)F)C3c2ccccc2Cl)cc1` (stereo not shown) [compound 169], for which, in assay [1] (setting [5]), the IC50 is > 33.3 µM. In addition, the EC50 in assay [2] (setting [6]) stood at 17.7 µM.
For the compound `COc1ccc(C2CC(=O)C3=C(C2)Nc2ccccc2N(C(=O)c2ccccc2)C3c2ccc(C)cc2)cc1OC` (stereo not shown) [compound 170], the half-inhibitory concentration (IC50) in assay [1] (setting [5]) is > 42.7 µM. Also, the EC50 in assay [2] (setting [6]) was found to be 3.75 µM.
Consider `CCCCOc1ccc(C2CC(=O)C3=C(C2)Nc2ccccc2N(C(=O)C(F)(F)F)C3c2ccccc2)cc1` (stereo not shown) [compound 171], for which, in assay [1] (setting [5]), the IC50 was > 42.7 µM. In assay [2] (setting [6]), the EC50 turned out to be 4.54 µM.
For the compound `COc1ccc(C2CC(=O)C3=C(C2)Nc2ccccc2N(C(C)=O)C3c2cccc([N+](=O)[O-])c2)cc1OC` (stereo not shown) [compound 172], in assay [1] (setting [5]), the IC50 was > 42.7 µM. Also, in assay [2] (setting [6]), the EC50 was determined as 11.3 µM.
The matching figures for `CCOc1ccccc1C1CC(=O)C2=C(C1)Nc1ccccc1N(C(=O)C(F)(F)F)C2c1ccc(OC)cc1` (stereo not shown) [compound 173]: > 42.7 µM and 0.208 µM.
For `CCCCCC(=O)N1c2ccccc2NC2=C(C(=O)CC(c3cccc([N+](=O)[O-])c3)C2)C1c1ccc(OC)c(OC)c1` (stereo not shown) [compound 174], in that order: > 42.7 µM and 1.85 µM.
As to `CCOc1ccccc1C1C2=C(CC(c3ccc(OC)cc3)CC2=O)Nc2ccccc2N1C(C)=O` (stereo not shown) [compound 179], the concentration for half-maximal inhibition (IC50) in assay [1] (setting [5]) is > 42.7 µM. In addition, the EC50 in assay [2] (setting [6]) amounted to 8.54 µM.

Usually IC50 stands for the midpoint of a concentration-inhibition curve. In general, EC50 refers to the concentration giving half of the maximal effect.
